According to patent US20250108139A1, “PEPTIDE UREA DERIVATIVE, PHARMACEUTICAL COMPOSITION CONTAINING PEPTIDE UREA DERIVATIVE, AND APPLICATION OF PEPTIDE UREA DERIVATIVE” (BIVISION PHARMACEUTICALS, INC, priority 2022, published 2025):
Each block holds one compound with its values, some of them ahead of it.

Columns and labels:
[1] = system: human prostate cancer cell line 22RV1 tumor model; experiment: Micro-SPECT/CT scanning imaging study in mouse transplanted with 22RV1; type: in vivo; settings: for Uptake in Bladder / Uptake in Kidney / Uptake in Liver / Uptake in Muscle / Uptake in Tumor (22Rv1): i.v., Micro-SPECT/CT
Protocol: Human prostate cancer cell line 22RV1 cells were subcutaneously injected into the axilla of nude mouse to establish a prostate cancer tumor model. Approximately 3.7 MBq (100 μCi/200 μL) of the ^177Lu-labeled compound [^177Lu] DB-01 was administered via intravenous injection. SPECT/CT images were acquired using the U-SPECT+/CT (MI Labs) at 3rd hour, 5th hour, 24th hour, 72nd hour, 120th hour and 168th hour post-injection, and the resulting SPECT/CT images were quantitatively analyzed.
Table 4 presents the uptake in various organs of mouse at the 3rd hour, 5th hour, 24th hour, 72nd hour, 120th hour, and 168th hour post-injection of [^177Lu] DB-01. The results are expressed as the quantitative percentage of the injected dose (% ID)/g, based on Micro-SPECT/CT quantitative analysis.

PSMA protein = PSMA protein (Homo sapiens (Human), UniProt Q04609); experiment: Affinity of DB compounds to PSMA protein using Biacore (Effect Example 3); settings: Biacore 8K, 15° C., 1:1 binding model; pKD=−Log KD
Sequence of PSMA protein (Q04609 whole entry): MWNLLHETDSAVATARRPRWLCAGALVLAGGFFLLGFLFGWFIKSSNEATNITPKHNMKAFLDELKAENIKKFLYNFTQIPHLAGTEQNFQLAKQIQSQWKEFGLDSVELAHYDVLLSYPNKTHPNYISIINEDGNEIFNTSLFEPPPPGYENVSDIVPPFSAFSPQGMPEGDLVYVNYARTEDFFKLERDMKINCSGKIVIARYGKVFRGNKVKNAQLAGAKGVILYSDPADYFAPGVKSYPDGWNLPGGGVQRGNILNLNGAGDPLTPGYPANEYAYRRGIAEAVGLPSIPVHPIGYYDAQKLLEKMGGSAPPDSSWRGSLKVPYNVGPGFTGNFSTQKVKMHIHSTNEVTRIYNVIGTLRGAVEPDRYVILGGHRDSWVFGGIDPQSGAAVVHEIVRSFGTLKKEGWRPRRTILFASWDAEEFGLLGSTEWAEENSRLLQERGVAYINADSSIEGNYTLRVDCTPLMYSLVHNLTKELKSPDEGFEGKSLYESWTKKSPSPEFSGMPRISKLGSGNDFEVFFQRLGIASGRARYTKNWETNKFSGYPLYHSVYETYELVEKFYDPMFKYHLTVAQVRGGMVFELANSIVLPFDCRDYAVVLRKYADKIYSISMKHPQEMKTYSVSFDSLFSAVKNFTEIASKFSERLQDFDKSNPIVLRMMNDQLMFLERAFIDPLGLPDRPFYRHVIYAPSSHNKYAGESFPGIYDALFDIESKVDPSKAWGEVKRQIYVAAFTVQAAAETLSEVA
Protocol: The affinity of DB compounds to PSMA protein was tested using the Biacore 8K (Cytiva) instrument to detect ligand binding to PSMA protein (Sino Biological). PSMA protein was captured on an SA chip. Before fixing the ligand (flow paths 1 and 2, flow rate of 10 μL/min), PSMA protein (10 μg/mL, flow rate of 5 μL/min, injection time of 600 s) was fixed on flow path 2 using a flow buffer. The sensor surface was adjusted by continuously injecting 1 M NaCl three times in 50 mM NaOH. After each ligand injection, additional cleaning was performed using isopropanol in 1 M NaCl and 50 mM NaOH (flow paths 1 and 2, flow rate of 10 μL/min, injection time of 60 s).
All compounds were dissolved in 100% DMSO and diluted to 10 mM, then further diluted to the appropriate highest concentration in the analysis buffer (PBS, PH 7.4, 1 mM TCEP ([…]), 0.05% P20, 2% DMSO). The analysis was conducted under the following conditions: 15° C. analysis temperature; analysis steps=all set to LMW kinetics; cycle type=single cycle (90 s contact time, 1800 s dissociation time, 30 μL/min flow rate, flow paths 1 and 2); detection in flow=path 2-1. Data evaluation was performed using Biacore Insight Evaluation Software, fitting the data to a 1:1 binding model.
Biacore results are shown in Table 5: pKD=−Log KD, wherein KD is the binding affinity of the compound to PSMA protein measured by Biacore. It is expressed by Kd (M)=Kd (1/s)/Ka (1/Ms). A indicates pKD>8; B indicates 7<pKD<8; C indicates 6<pKD<7; D indicates pKD<6.

[2] = system: PSMA-positive 22rv1 tumor-bearing mouse; experiment: 177Lu labeling and animal biodistribution experiment, gamma counter; type: in vivo; settings: 177Lu-labeled compound, 24 h after tail vein injection, n = 2
Protocol: Distribution in PSMA-positive tumor-bearing mouse tissues: Tumor-bearing animals (purchased from Shanghai Alamo Pharmaceutical Technology Co., Ltd.) were subcutaneously inoculated with 3×10^6 22rv1 cells (in 50% Matrigel, Corning) into the right shoulder region of 6-9 week old (Balb/c Nude) mouse. Once the tumors had grown to an appropriate size, ^177Lu-radiolabeled DB compounds were injected into the mouse via the tail vein (approximately 1.85 MBq-3.7 MBq/mouse, specific activity: 22423.82 Kbq/μg). After administration, the animals were euthanized using carbon dioxide inhalation at 24 hours. The blood and organs (blood, liver, kidney, muscle, tumor) were collected.
Blood was collected through the abdominal aorta and 100 μL was immediately quantified into designated centrifuge tubes (weighed). After collection, the organs were washed twice with deionized water, dried, placed in pre-weighed tubes, and weighed again to calculate the sample weight. Samples were measured on the day of collection. All blood and tissue samples were measured for radioactivity using a gamma counter. The results are shown in FIGS. 3, 4, 5, 6, 7, and Table 6.

- Kd (PSMA protein): < 10 nM
SMILES: O=C(O)CC[C@H](NC(=O)N[C@@H](CCCCNC(=O)[C@H](Cc1ccc2ccccc2c1)NC(=O)[C@H]1CC[C@H](CNC(=O)CNC(=O)c2cc(NC(=O)CN3CCN(CC(=O)O)CCN(CC(=O)O)CCN(CC(=O)O)CC3)cc(C(=O)NCC(=O)NC[C@H]3CC[C@H](C(=O)N[C@@H](Cc4ccc5ccccc5c4)C(=O)NCCCC[C@H](NC(=O)N[C@@H](CCC(=O)O)C(=O)O)C(=O)O)CC3)c2)CC1)C(=O)O)C(=O)O [DB-02]

- Kd (PSMA protein): < 10 nM
- Blood uptake [2]: 0.03 % ID/g
- Kidney uptake [2]: 5.135 % ID/g
- Liver uptake [2]: 0.185 % ID/g
- Muscle uptake [2]: 0.045 % ID/g
- Tumor uptake [2]: 12.015 % ID/g
SMILES: O=C(O)CC[C@H](NC(=O)NC(CCCCNC(=O)[C@H](Cc1ccc2ccccc2c1)NC(=O)[C@H]1CC[C@H](NC(=O)CCC(=O)NCCCC[C@H](NC(=O)CCC(=O)N[C@H]2CC[C@H](C(=O)N[C@@H](Cc3ccc4ccccc4c3)C(=O)NCCCC[C@H](NC(=O)N[C@@H](CCC(=O)O)C(=O)O)C(=O)O)CC2)C(=O)NCCNC(=O)CN2CCN(CC(=O)O)CCN(CC(=O)O)CCN(CC(=O)O)CC2)CC1)C(=O)O)C(=O)O (stereo partly shown) [DB-16]

- Kd (PSMA protein): < 10 nM
- Blood uptake [2]: 0.145 % ID/g
- Kidney uptake [2]: 88.175 % ID/g
- Liver uptake [2]: 1.415 % ID/g
- Muscle uptake [2]: 0.135 % ID/g
SMILES: O=C(O)CC[C@H](NC(=O)N[C@@H](CCCCNC(=O)[C@H](Cc1ccc2ccccc2c1)NC(=O)c1ccc(C2CCN(C(=O)CCC(=O)NCC(=O)N3CN(C(=O)CNC(=O)CCC(=O)N4CCC(c5ccc(C(=O)N[C@@H](Cc6ccc7ccccc7c6)C(=O)NCCCC[C@H](NC(=O)N[C@@H](CCC(=O)O)C(=O)O)C(=O)O)cc5)CC4)CN(C(=O)CNC(=O)CN4CCN(CC(=O)O)CCN(CC(=O)O)CCN(CC(=O)O)CC4)C3)CC2)cc1)C(=O)O)C(=O)O [DB-12]

- Kd (PSMA protein): < 10 nM
- Blood uptake [2]: 1.54 % ID/g
- Kidney uptake [2]: 150.54 % ID/g
- Liver uptake [2]: 3.645 % ID/g
- Muscle uptake [2]: 0.465 % ID/g
- Tumor uptake [2]: 77.54 % ID/g
SMILES: O=C(O)CC[C@H](NC(=O)NC(CCCCNC(=O)[C@H](Cc1ccc2ccccc2c1)NC(=O)c1ccc(C2CCN(C(=O)CNC(=O)c3cc(NC(=O)COCCOCCNC(=O)CN4CCN(CC(=O)O)CCN(CC(=O)O)CCN(CC(=O)O)CC4)cc(C(=O)NCC(=O)N4CCC(c5ccc(C(=O)N[C@@H](Cc6ccc7ccccc7c6)C(=O)NCCCC[C@H](NC(=O)N[C@@H](CCC(=O)O)C(=O)O)C(=O)O)cc5)CC4)c3)CC2)cc1)C(=O)O)C(=O)O (stereo partly shown) [DB-21]

- Kd (PSMA protein): < 10 nM
- Blood uptake [2]: 0.035 % ID/g
- Kidney uptake [2]: 8.76 % ID/g
- Liver uptake [2]: 0.095 % ID/g
- Muscle uptake [2]: 0.04 % ID/g
- Tumor uptake [2]: 19.46 % ID/g
SMILES: O=C(O)CC[C@H](NC(=O)NC(CCCCNC(=O)[C@H](Cc1ccc2ccccc2c1)NC(=O)[C@H]1CC[C@H](NC(=O)COCCOCCNC(=O)c2cc(NC(=O)CCCCCCCNC(=O)CN3CCN(CC(=O)O)CCN(CC(=O)O)CCN(CC(=O)O)CC3)cc(C(=O)NCCOCCOCC(=O)N[C@H]3CC[C@H](C(=O)N[C@@H](Cc4ccc5ccccc5c4)C(=O)NCCCC[C@H](NC(=O)N[C@@H](CCC(=O)O)C(=O)O)C(=O)O)CC3)c2)CC1)C(=O)O)C(=O)O (stereo partly shown) [DB-15]

Further lines, the compound ahead of its results:

SMILES: O=C(O)CC[C@H](NC(=O)N[C@@H](CCCCNC(=O)[C@H](Cc1ccc2ccccc2c1)NC(=O)C1CCC(CNC(=O)c2cc(NC(=O)C[N+]34CC[N+]56CC[N+]78CC[N+]9(CC3)CC(=O)[O][Lu-4]4597([O]C(=O)C6)[O]C(=O)C8)cc(C(=O)NC[C@H]3CC[C@H](C(=O)N[C@@H](Cc4ccc5ccccc5c4)C(=O)NCCCC[C@H](NC(=O)N[C@@H](CCC(=O)O)C(=O)O)C(=O)O)CC3)c2)CC1)C(=O)O)C(=O)O (stereo partly shown) [[^177Lu] DB-01]
- Uptake in Bladder ([1]; 3 hr post-injection): 65.50 ± 36.65 % ID/g
- Uptake in Kidney ([1]; 3 hr post-injection): 43.00 ± 7.38 % ID/g
- Uptake in Liver ([1]; 3 hr post-injection): 2.75 ± 0.90 % ID/g
- Uptake in Muscle ([1]; 3 hr post-injection): 1.97 ± 0.71 % ID/g
- Uptake in Tumor (22Rv1) ([1]; 3 hr post-injection): 21.25 ± 4.38 % ID/g
- Uptake in Bladder ([1]; 5 hr post-injection): 140.36 ± 10.51 % ID/g
- Uptake in Kidney ([1]; 5 hr post-injection): 19.29 ± 2.77 % ID/g
- Uptake in Liver ([1]; 5 hr post-injection): 1.56 ± 0.15 % ID/g
- Uptake in Muscle ([1]; 5 hr post-injection): 1.10 ± 0.56 % ID/g
- Uptake in Tumor (22Rv1) ([1]; 5 hr post-injection): 21.28 ± 0.42 % ID/g
- Uptake in Bladder ([1]; 24 hr post-injection): 0.61 ± 0.00 % ID/g
- Uptake in Kidney ([1]; 24 hr post-injection): 1.32 ± 0.63 % ID/g
- Uptake in Liver ([1]; 24 hr post-injection): 0.91 ± 0.45 % ID/g
- Uptake in Muscle ([1]; 24 hr post-injection): 0.51 ± 0.17 % ID/g
- Uptake in Tumor (22Rv1) ([1]; 24 hr post-injection): 15.51 ± 2.65 % ID/g
- Uptake in Bladder ([1]; 72 hr post-injection): 1.03 ± 0.62 % ID/g
- Uptake in Kidney ([1]; 72 hr post-injection): 1.38 ± 0.29 % ID/g
- Uptake in Liver ([1]; 72 hr post-injection): 0.90 ± 0.42 % ID/g
- Uptake in Muscle ([1]; 72 hr post-injection): 0.81 ± 0.23 % ID/g
- Uptake in Tumor (22Rv1) ([1]; 72 hr post-injection): 12.41 ± 0.95 % ID/g
- Uptake in Bladder ([1]; 120 hr post-injection): 0.92 ± 0.06 % ID/g
- Uptake in Kidney ([1]; 120 hr post-injection): 0.77 ± 0.62 % ID/g
- Uptake in Liver ([1]; 120 hr post-injection): 0.99 ± 0.22 % ID/g
- Uptake in Muscle ([1]; 120 hr post-injection): 0.43 ± 0.17 % ID/g
- Uptake in Tumor (22Rv1) ([1]; 120 hr post-injection): 8.90 ± 0.48 % ID/g
- Uptake in Bladder ([1]; 168 hr post-injection): 1.01 ± 0.38 % ID/g
- Uptake in Kidney ([1]; 168 hr post-injection): 1.53 ± 0.46 % ID/g
- Uptake in Liver ([1]; 168 hr post-injection): 1.04 ± 0.26 % ID/g
- Uptake in Muscle ([1]; 168 hr post-injection): 0.65 ± 0.34 % ID/g
- Uptake in Tumor (22Rv1) ([1]; 168 hr post-injection): 7.85±1.16 % ID/g
- uptake in tumor ([1]; at 180 minutes, according to calculations): 13.55±3.85 % ID/g
- excretion ([1]; early stages post-injection): rapidly excreted through the kidneys and bladder
- time at which concentration of the radiopharmaceutical in the tumor reaches its peak ([1]; post-administration): 5 h

SMILES: O=C(O)CC[C@H](NC(=O)NC(CCCCNC(=O)[C@H](Cc1ccc2ccccc2c1)NC(=O)c1ccc(C2CCN(C(=O)CCC(=O)NCCCC[C@H](NC(=O)CCC(=O)N3CCC(c4ccc(C(=O)N[C@@H](Cc5ccc6ccccc6c5)C(=O)NCCCC[C@H](NC(=O)N[C@@H](CCC(=O)O)C(=O)O)C(=O)O)cc4)CC3)C(=O)NCCNC(=O)CN3CCN(CC(=O)O)CCN(CC(=O)O)CCN(CC(=O)O)CC3)CC2)cc1)C(=O)O)C(=O)O (stereo partly shown) [DB-20]
- Kd (PSMA protein): < 10 nM
- Blood uptake [2]: 0.160 % ID/g
- Kidney uptake [2]: 74.455 % ID/g
- Liver uptake [2]: 1.020 % ID/g
- Muscle uptake [2]: 0.175 % ID/g
- Tumor uptake [2]: 41.73 % ID/g

SMILES: O=C(O)CC[C@H](NC(=O)NC(CCCCNC(=O)[C@H](Cc1ccc2ccccc2c1)NC(=O)[C@H]1CC[C@H](NC(=O)c2cc(NC(=O)CNC(=O)CN3CCN(CC(=O)O)CCN(CC(=O)O)CCN(CC(=O)O)CC3)cc(C(=O)N[C@H]3CC[C@H](C(=O)N[C@@H](Cc4ccc5ccccc5c4)C(=O)NCCCC[C@H](NC(=O)N[C@@H](CCC(=O)O)C(=O)O)C(=O)O)CC3)c2)CC1)C(=O)O)C(=O)O (stereo partly shown) [DB-17]
- Kd (PSMA protein): < 10 nM

SMILES: O=C(O)CC[C@H](NC(=O)N[C@@H](CCCCNC(=O)[C@H](Cc1ccc2ccccc2c1)NC(=O)c1ccc2c(c1)CCN(C(=O)CCC(=O)NCC(=O)N1CN(C(=O)CNC(=O)CCC(=O)N3CCc4cc(C(=O)N[C@@H](Cc5ccc6ccccc6c5)C(=O)NCCCC[C@H](NC(=O)N[C@@H](CCC(=O)O)C(=O)O)C(=O)O)ccc4C3)CN(C(=O)CNC(=O)CN3CCN(CC(=O)O)CCN(CC(=O)O)CCN(CC(=O)O)CC3)C1)C2)C(=O)O)C(=O)O [DB-14]
- Kd (PSMA protein): < 10 nM
- Blood uptake [2]: 0.06 % ID/g
- Kidney uptake [2]: 31.72 % ID/g
- Liver uptake [2]: 0.37 % ID/g
- Muscle uptake [2]: 0.1 % ID/g
- Tumor uptake [2]: 43.175 % ID/g
